Experimental data taken from US9096591B2, “Tetracyclic compounds” (Medivation Technologies, Inc., priority 2007, dated 2015).
Like-named read-outs stand apart in the source and are kept apart here.

How the values were obtained:
[1] = test system: AMPA receptors; assay: AMPA-receptor activity: kainic acid-induced currents in Purkinje cells (patch-clamp); assay type: cell-based, rat; settings: mean±SEM, control=100%
Experimental: The analysis of effects of the testing compounds on AMPA receptors was carried out using an electrophysiological patch-clamp method in whole cell configuration (Hamill et al., 1980) of the Purkinje cell fresh isolated from the cerebellum of juvenile rats (12-15 days). The isolation was carried out using a modified method (Kaneda et al., 1988) in which cerebral 400-600 μm sections were incubated for 60 min in the temperature controlled chamber in 10 mL of buffer solution (150 mM NaCl, 5 mM KCl, 2 mM CaCl2, 2 mM MgSO4.7H2O, 10 mM HEPES, 15 mM glucose, pH 7.42). The incubation solution was exchanged with the incubation buffer with pronase (2 mg/mL) and collagenase (1 mg/mL) for 70 min. After a 20 min wash with the original buffer, all sections were placed into the Petri dish and were separated using a Pasteur pipette. All solutions were constantly aerated with 100% O2 at 34° C. The composition of extracellular saline was: 150 mM NaCl, 5 mM KCl, 2.6 mM CaCl2, 2 mM MgSO4.7H2O, 10 mM HEPES, 15 mM glucose, pH 7.36. The transmembrane current was induced as a result of the activation of AMPA receptors by a superfusion with the agonist solution (kainic acid). The currents were measured using borosilicate microelectrodes (resistance […]) filled with 100 mM KCl, 11 mM EGTA, 1 mM CaCl2, 1 mM MgCl2, 10 mM HEPES, 5 mM ATP, pH 7.2. The currents were registered using EPC-9 (HEKA, Germany) and recorded with Pulse software package which was also purchased from HEKA. The analysis of observations was carried out using Pulsefit (HEKA, Germany) and the statistical significance was analyzed using a Student's T-test criteria. Data are presented as mean±SEM in % of control values.
Compounds of the invention were tested in 3-5 neurons. Every concentration of compound was repeated three-four times in every neuron. Data are presented as mean±SEM in % of Control values (Table 13+14, FIGS. 8-12). Control value=100%.

[2] = test system: rat brain mitochondria; assay: Ca2+-induced swelling of mitochondria (MPT pore opening); assay type: biochemical, Wistar rats; settings: for A540 increase in mitochondrial suspension after addition of 100 μM of compound: 100 μM compound
Experimental: Rat liver and brain mitochondria were prepared from male Wistar rats. The rats were euthanized in a CO2 chamber followed by decapitation the procedure being in compliance with the Guidelines for Animal Experiments at IPAC RAS. […]
Brain mitochondria were isolated from the pooled forebrains of two rats. The modified method of Sims was used to isolate and purify brain mitochondria in a Percoll gradient. The brain was homogenized in “buffer A” (225 mM mannitol, 75 mM sucrose, 5 mM HEPES, 1 mM EGTA, pH 7.4 [KOH]) and centrifuged for 10 min at 1300 g. The supernatant was centrifuged for 10 min at 10000 g, and then the pellet was suspended in 15% Percoll and layered on a discontinuous gradient consisting of 40 and 23% Percoll, respectively, which was then centrifuged for 10 min at 30000 g without using brakes. The mitochondria were collected from the interface of the lower two layers and after resuspension in “buffer A”, the suspension was centrifuged at 16600 g for 10 min, then the pellet was resuspended in “buffer A”, BSA (10 mg/mL) was added to bind free fatty acids; and the suspensions was centrifuged again at 6300 g for 10 min. Following centrifugation the pelleted mitochondria were re-suspended in isolation medium without EGTA to achieve a protein concentration of 15-20 mg/ml.
Mitochondrial swelling caused by influx of solutes through open PT pores results in an increase in light transmission (i.e., a reduced turbidity). This turbidity change offers a convenient and frequently used assay of the MPT by measurement of absorbance in mitochondrial suspensions. In the present study, the MPT induced by Ca^2+ and inorganic phosphate (Ca/Pi) was monitored by absorbance changes at 540 nm in a cuvette in a Beckman DU 640 spectrophotometer in 1 ml of buffer A plus 0.8 μM rotenone, 5 mM succinate, 1 mM KH2PO4 and 0.5 mg or 0.2 mg protein of isolated liver or brain mitochondria, accordingly. Reaction was started by the addition of triggering agent (Ca^2+). Pre-treatment and reaction were performed at 30° C. Swelling rate was quantified as ΔA540/min/mg, calculated, in all cases, from a tangent to the steepest portion of the plot of A540 versus time.
Ca^2+-induced Swelling of mitochondria was used as the primary screening test for compounds influence on MPT pore opening. […] But the inhibition of swelling may be connected not only with direct inhibition of MPT pore opening but also with the impairment of respiratory function of mitochondria and with the compounds action on calcium transport into mitochondria. For the primary estimation of these possibilities the mitochondrial membrane potential and calcium retention capacity of mitochondria were measured. […] New synthesized compounds (except C-14 and C-43) alone induced an increase of brain mitochondria suspension turbidity. The mechanism of such effect needs additional investigations.

[3] = test system: rat brain mitochondria; assay: Mitochondrial membrane potential (safranine test); assay type: biochemical, Wistar rats; settings: at concentrations up to 100 mkM
Experimental: The same experimental conditions were used for the assessment of alterations of the mitochondrial membrane potential, except that safranine was included in incubation medium at a final concentration of 10 mkM and succinate was added before the compounds of the invention. This concentration of safranine was determined before hand as the optimal compromise between signal/baseline ratio and interference of safranine itself with swelling induced by Ca/Pi (safranine tended to enhance Ca/Pi-induced swelling at concentrations above 20 mkM). Changes in the status of the mPT pore were assessed spectrophotometrically at 554 and 524 nm in a cuvette in a Beckman DU 640 spectrophotometer. A554-524 represents the characteristics of mitochondrial potential and A554-characteristics of mitochondrial swelling.

[4] = test system: synaptosomes of cortex of rat brain; assay: Glutamate-induced 45Ca2+ uptake into synaptosomes; assay type: biochemical, Wistar rats; settings: for glutamate-induced 45Ca2+ uptake into synaptosomes of rat cortex, % of control: 50-100 μM; for % Ca of control (control-100%), glutamate-induced 45Ca2+ uptake into synaptosomes: rat cortex synaptosomes
Experimental: Synaptosomes were obtained from cerebral cortex of newborn (9-10 days) Wistar rats using standard Hajos method. The brain was homogenized with 10 volumes of cooled 0.32 M sucrose at 900 rpm. The homogenate was centrifuged at 1500 g for 10 min. and the resulted supernatant was centrifuged at 10000 g for 20 min. The radioactive label was accumulated by suspension of the synaptosomal P2-fraction in the incubation buffer A having the following composition: 132 mM NaCl, 5 mM KCl, 5 mM HEPES, 10 mM glucose, pH 7.4 (protein concentration of approximately 1.5-2 mg/ml). The mixture was further incubated for 5 min with 200 μM glutamate at 37° C. and then ^45Ca^2+ uptake was stopped by filtration through GF/B filters (Whatman, England) followed by three washes with cold buffer B (145 mM KCl, 10 mM Tris, 5.4 mM Trilon B, pH 7.4). The radioactivity probes were analyzed by fluid scintillation beta-analyzer (TriCarb, Perkin Elmer). All tests were performed in three parallel trials in 2-3 independent experiments. The amount of ^45Ca^2+ uptake was estimated by calculating the difference of radioactive label during the stimulation with glutamate and without the stimulation with agonist.
Specific ^45Ca^2+ uptake was estimated using the following equation: K(43/21)=[(Ca4−Ca3)/(Ca2−Ca1)]100%, where
Ca1—^45Ca^2+ uptake for the Control (without glutamate and the compound tested),
[…] glutamate-induced ^45Ca^2+ uptake (glutamate only),
Ca3—^45Ca^2+ uptake in the presence of the compound tested (without glutamate),
Ca4—^45Ca^2+ uptake in the presence of glutamate and the testing compound.
Statistical analysis of the results was performed using Student's t-test.

[5] = concentration reducing to 50% the initial rate of turbidity fall after calcium addition, read-out: IC50, decrease of calcium-induced swelling of brain mitochondria
[6] = read-out: IC50, Ca2+-induced (25-50 μM) swelling of brain mitochondria, rat brain mitochondria, Ca2+ 25-50 μM

| SMILES | kainic acid-induced currents in Purkinje cells, % of Control values ([1]; compound 3 × 10^−5 M) [%] | kainic acid-induced currents in Purkinje cells, % of Control values ([1]; compound 10^−5 M) [%] | kainic acid-induced currents in Purkinje cells, % of Control values ([1]; compound 10^−6 M) [%] | kainic acid-induced currents in Purkinje cells, % of Control values ([1]; compound 10^−7 M) [%] | kainic acid-induced currents in Purkinje cells, % of Control values ([1]; compound 10^−8 M) [%] | kainic acid-induced currents in Purkinje cells, % of Control values ([1]; compound 10^−9 M) [%] | IC50 [2, 5] [µM] | A540 increase in mitochondrial suspension after addition of 100 μM of compound ([2]; rat brain mitochondria) [rel.units] | IC50 [2, 6] [µM] | depolarization of brain mitochondria [3] | concentration at which glutamate-induced 45Ca2+ uptake into synaptosomes was not affected [4] [µM] | glutamate-induced 45Ca2+ uptake into synaptosomes of rat cortex, % of control [4] [%] | % Ca of control (control-100%), glutamate-induced 45Ca2+ uptake into synaptosomes ([4]; compound 0.1 μM) [%] | % Ca of control (control-100%), glutamate-induced 45Ca2+ uptake into synaptosomes ([4]; compound 0.5 μM) [%] | % Ca of control (control-100%), glutamate-induced 45Ca2+ uptake into synaptosomes ([4]; compound 1 μM) [%] | % Ca of control (control-100%), glutamate-induced 45Ca2+ uptake into synaptosomes ([4]; compound 5 μM) [%] | % Ca of control (control-100%), glutamate-induced 45Ca2+ uptake into synaptosomes ([4]; compound 10 μM) [%] | % Ca of control (control-100%), glutamate-induced 45Ca2+ uptake into synaptosomes ([4]; compound 50 μM) [%] | % Ca of control (control-100%), glutamate-induced 45Ca2+ uptake into synaptosomes ([4]; compound 100 μM) [%] | inhibition of glutamate-induced 45Ca2+ uptake into synaptosomes ([4]; 0.5 μM) [%] |
| --- | --- | --- | --- | --- | --- | --- | --- | --- | --- | --- | --- | --- | --- | --- | --- | --- | --- | --- | --- | --- |
| CN1CCc2c(c3ccccc3n2CCc2noc(-c3ccncc3)n2)C1 [Compound C4-3] | 80 ± 10 | 100 ± 6 | 139 ± 11 | 149 ± 15 | 145 ± 12 | 100 ± 3 | ~76 | 1 | 76 ± 12 | No depolarization | 0.1 to 50 | ~126 | 93.2 ± 3.0 | 92.1 ± 3.3 | 101.0 ± 1.0 | 93.7 ± 6.8 | 94.7 ± 6.9 | 117.9 ± 6.0 | 125.6 ± 3.9 |  |
| CN1CCc2c(c3ccccc3n2CCc2nc(-c3ccncc3)cs2)C1 [Compound C1-4] |  | 100 ± 9 | 109 ± 12 | 114 ± 5 | 119 ± 6 | 129 ± 9 | ~94 | 1 | 93.9 ± 16.4 | No depolarization |  | ~131 | 99.1 ± 2.5 | 87.4 ± 3.7 | 96.2 ± 5.0 | 94.9 ± 5.7 | 94.3 ± 2.7 | 112.7 ± 10.1 | 131.5 ± 0.1 | ~12.6 |
